pIC50: −log10 of the molar value.
Key:
[1] = test system: BT474 and HN5 tumor cell lines; assay: Methylene blue growth inhibition assay (cellular Method A); assay type: cell-based, Human; settings: Homo sapiens, BT-474, 72 h, 3 days, read-out: Activity (Method): growth inhibition IC50 class
Method in brief: (§1)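 Colo205, BT474 and HN5 cells in DMEM/10% FBS (BT474 10,000, HN5 3,000 cells/well) treated next day with compound in DMEM, 0.3% final DMSO, for 3 days at 37° C. Biomass stained with methylene blue, solubilized, read at OD 620; IC50 interpolated by nonlinear regression from % inhibition versus vehicle.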

[2] = target: T1, ErbB2 or EGFR; assay: ErbB family substrate phosphorylation enzyme assay (HTRF), Method A or Method B; assay type: biochemical; settings: Method B: enzyme mix pre-incubated with compound 1 hour at 20° C., started with substrate mix
T1 construct: enzymes purified from a baculovirus expression system; Reagent production was conducted essentially as described in Brignola, P. S., et al, (2002) J. Biol. Chem. 277(2): 1576-1585
Method in brief: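 Baculovirus-expressed EGFR or ErbB2 (0.8 or 10 nM in enzyme mix) phosphorylates biotinylated Peptide C with 20 µM ATP and 0.8 µM peptide (substrate-mix levels), MnCl2, pH 7.5. Reaction ran 90 min at 20 °C with EDTA stop and HTRF anti-phosphotyrosine read. Method A: enzyme added last; Method B: 1 h enzyme–compound preincubation.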

[3] = test system: Colo205 tumor cell lines; assay: Methylene blue growth inhibition assay (cellular Method A), Colo205; assay type: cell-based, Human; settings: Homo sapiens, COLO 205, 72 h, 3 days, read-out: Activity (Method): growth inhibition IC50 class
Method in brief: as §1

SMILES | pIC50 [1] | Activity (Method): pIC50 class against ErbB2 or EGFR [2] | pIC50 [3]
COC(=O)CCCOc1ccc(Nc2nccc(-c3c(-c4cccc(NC(=O)c5c(F)cccc5F)c4)nn4ccccc34)n2)cc1Cl [Example 162, Methyl 4-{[2-chloro-4-({4-[2-(3-{[(2,6-difluorophenyl)carbonyl]-amino}phenyl)pyrazolo[1,5-a]pyridin-3-yl]-2-pyrimidinyl}amino)phenyl]oxy}-butanoate] | 6.00 to 7.00 | ++ (B) (at least one pIC50 measurement greater than 6 against either ErbB2 or EGFR but no measurement greater than pIC50 of 7) | 6.00 to 7.00
COc1ccc(Nc2nccc(-c3c(-c4cccc(NC(=O)c5c(F)cccc5F)c4)nn4ccccc34)n2)cc1O [Example 166, 2,6-Difluoro-N-{3-[3-(2-{[3-hydroxy-4-(methyloxy)phenyl]amino}-4-pyrimidinyl)pyrazolo[1,5-a]pyridin-2-yl]phenyl}benzamide] | > 7.00 | +++ (B) (at least one pIC50 measurement of greater than 7 against either ErbB2 or EGFR) | < 6.00
COc1ccc(Nc2nccc(-c3c(-c4cccc(NC(=O)c5c(F)cccc5F)c4)nn4ccccc34)n2)cc1OCCN(C)C [Example 167, N-{3-[3-(2-{[3-{[2-(Dimethylamino)ethyl]oxy}-4-(methyloxy)phenyl]amino}-4-pyrimidinyl)pyrazolo[1,5-a]pyridin-2-yl]phenyl}-2,6-difluorobenzamide] | > 7.00 | +++ (B) (at least one pIC50 measurement of greater than 7 against either ErbB2 or EGFR) | 6.00 to 7.00
NC1CCc2ccc(Nc3nccc(-c4c(-c5cccc(NC(=O)c6c(F)cccc6F)c5)nn5ccccc45)n3)cc2C1 (stereo not drawn) [Example 174, N-[3-(3-{2-[(7-Amino-5,6,7,8-tetrahydro-2-naphthalenyl)amino]-4-pyrimidinyl}pyrazolo[1,5-g]pyridin-2-yl)phenyl]-2,6-difluorobenzamidedifluorobenzamide] | > 7.00 | +++ (B) (at least one pIC50 measurement of greater than 7 against either ErbB2 or EGFR) | 6.00 to 7.00
NC1Cc2ccc(Nc3nccc(-c4c(-c5cccc(NC(=O)c6c(F)cccc6F)c5)nn5ccccc45)n3)cc2C1 (stereo not drawn) [Example 177, N-[3-(3-{2-[(2-Amino-2,3-dihydro-1H-inden-5-yl)amino]-4-pyrimidinyl}pyrazolo[1,5-a]pyridin-2-yl)phenyl]-2,6-difluorobenzamide] | > 7.00 | +++ (B) (at least one pIC50 measurement of greater than 7 against either ErbB2 or EGFR) | 6.00 to 7.00
CN1CCc2ccc(Nc3nccc(-c4c(-c5cccc(NC(=O)c6c(F)cccc6F)c5)nn5ccccc45)n3)cc2C1 [Example 179, 2,6-Difluoro-N-[3-(3-{2-[(2-methyl-1,2,3,4-tetrahydro-7-isoquinolinyl)amino]-4-pyrimidinyl}pyrazolo[1,5-a]pyridin-2-yl)phenyl]benzamide] | > 7.00 | +++ (B) (at least one pIC50 measurement of greater than 7 against either ErbB2 or EGFR) | 6.00 to 7.00
CN1CCc2ccc(Nc3nccc(-c4c(-c5cccc(NC(=O)c6cc(F)ccc6F)c5)nn5ccccc45)n3)cc2C1 [Example 189, 2,5-Difluoro-N-[3-(3-{2-[(2-methyl-1,2,3,4-tetrahydro-7-isoquinolinyl)amino]-4-pyrimidinyl}pyrazolo[1,5-a]pyridin-2-yl)phenyl]benzamide] | > 7.00 | +++ (B) (at least one pIC50 measurement of greater than 7 against either ErbB2 or EGFR) | < 6.00
Cc1ccc(F)c(C(=O)Nc2cccc(-c3nn4ccccc4c3-c3ccnc(Nc4cccc(OCCN(C)C)c4)n3)c2)c1F [Example 190, N-[3-(3-{2-[(3-{[2-(Dimethylamino)ethyl]oxy}phenyl)amino]-4-pyrimidinyl}pyrazolo[1,5-a]pyridin-2-yl)phenyl]-2,6-difluoro-3-methylbenzamide] | > 7.00 | +++ (B) (at least one pIC50 measurement of greater than 7 against either ErbB2 or EGFR) | 6.00 to 7.00
COc1ccc(-c2nn3ccccc3c2-c2ccnc(Nc3cccc(CN(C)C)c3)n2)cc1NC(=O)c1c(F)cccc1F [Example 192, N-[5-{3-[2-({3-[(dimethylamino)methyl]phenyl}amino)-4-pyrimidinyl]pyrazolo[1,5-a]pyridin-2-yl}-2-(methyloxy)phenyl]-2,6-difluorobenzamide] | < 6.00 | + (B) (no pIC50 measurement greater than 6 against either ErbB2 or EGFR) | < 6.00
C=CCN(C)CCOc1cccc(Nc2nccc(-c3c(-c4cccc(NC(=O)c5c(F)cccc5F)c4)nn4ccccc34)n2)c1 [Example 195, 2,6-Difluoro-N-{3-[3-(2-{[3-({2-[methyl(2-propen-1-yl)amino]ethyl}oxy)phenyl]amino}-4-pyrimidinyl)pyrazolo[1,5-a]pyridin-2-yl]phenyl}benzamide] | 6.00 to 7.00 | +++ (B) (at least one pIC50 measurement of greater than 7 against either ErbB2 or EGFR) | < 6.00
C=CCN(C)CCOc1cccc(Nc2nccc(-c3c(-c4cccc(NC(=O)c5cc(F)ccc5F)c4)nn4ccccc34)n2)c1 [Example 196, 2,5-Difluoro-N-{3-[3-(2-{[3-({2-[methyl(2-propen-1-yl)amino]ethyl}oxy)phenyl]amino}-4-pyrimidinyl)pyrazolo[1,5-a]pyridin-2-yl]phenyl}benzamide] | > 7.00 | +++ (B) (at least one pIC50 measurement of greater than 7 against either ErbB2 or EGFR) | 6.00 to 7.00
O=C1COc2ccc(Nc3nccc(-c4c(-c5cccc(NC(=O)c6c(F)cccc6F)c5)nn5ccccc45)n3)cc2N1 [Example 197, 2,6-Difluoro-N-[3-(3-{2-[(3-oxo-3,4-dihydro-2H-1,4-benzoxazin-6-yl)amino]-4-pyrimidinyl}pyrazolo[1,5-a]pyridin-2-yl)phenyl]benzamide] | > 7.00 | +++ (B) (at least one pIC50 measurement of greater than 7 against either ErbB2 or EGFR) | 6.00 to 7.00
CN(C)CCCOc1cccc(Nc2nccc(-c3c(-c4cccc(NC(=O)c5c(F)cccc5F)c4)nn4ccccc34)n2)c1 [Example 198, N-[3-(3-{2-[(3-{[3-(dimethylamino)propyl]oxy}phenyl)amino]-4-pyrimidinyl}pyrazolo[1,5-a]pyridin-2-yl)phenyl]-2,6-difluorobenzamide] | > 7.00 | +++ (B) (at least one pIC50 measurement of greater than 7 against either ErbB2 or EGFR) | 6.00 to 7.00
Cc1nc2cc(Nc3nccc(-c4c(-c5cccc(NC(=O)c6c(F)cccc6F)c5)nn5ccccc45)n3)ccc2s1 [Example 199, 2,6-Difluoro-N-[3-(3-{2-[(2-methyl-1,3-benzothiazol-5-yl)amino]-4-pyrimidinyl}pyrazolo[1,5-a]pyridin-2-yl)phenyl]benzamide] | > 7.00 | +++ (B) (at least one pIC50 measurement of greater than 7 against either ErbB2 or EGFR) | < 6.00
